In ChEMBL document CHEMBL1155556, “New macrolactins from a marine Bacillus sp. Sc026” (2000) one finds zone of inhibition data, which are given here for three molecules.

What all share (assay type): functional
Settings in all cases: read-out: IZ

For assay [1], the system named is Staphylococcus aureus. As to the kind of experiment: Antibacterial activity against Staphylococcus aureus ATCC 25923 at 100 ug/disk by agar diffusion assay.
Assay [2] deals with Bacillus subtilis. As to the kind of experiment: Antibacterial activity against Bacillus subtilis ATCC 6633 at 100 ug/disk by agar diffusion assay. On the technique in general: A growth-free zone around the sample is the usual read-out of agar diffusion tests.
The subject of assay [3] is Bacillus subtilis. As to the kind of experiment: Antibacterial activity against Bacillus subtilis ATCC 6633 at 50 ug/disk by agar diffusion assay.
Assay [4] deals with Staphylococcus aureus. As to the kind of experiment: Antibacterial activity against Staphylococcus aureus ATCC 25923 at 50 ug/disk by agar diffusion assay.

Structures are written as SMILES.

In the case of `C[C@@H]1CCC/C=C/CCC(=O)C[C@@H](O)C/C=C\C=C\[C@@H](OC(=O)CCC(=O)O)C/C=C/C=C\C(=O)O1`, the zone of inhibition at 100 µg/disc in the assay on Staphylococcus aureus [1] was found to be 8 mm; in the assay with Bacillus subtilis [2], 9 mm.
As to `C[C@@H]1CCC/C=C/C=C/[C@H](O)C[C@@H](O)C/C=C\C=C\[C@@H](OC(=O)CCC(=O)O)C/C=C/C=C\C(=O)O1` [7-O-SUCCINYL MACROLACTIN A], the zone of inhibition at 50 µg/disc worked out at 10 mm with Bacillus subtilis [3] and 24 mm in the assay on Staphylococcus aureus [4].
On to `C[C@@H]1CCC/C=C/CCC(=O)C[C@@H](O)C/C=C\C=C\[C@@H](O)C/C=C/C=C\C(=O)O1` [MACROLACTIN F], for which the figures for the zone of inhibition at 100 µg/disc in the assay with Staphylococcus aureus [1] and in the assay on Bacillus subtilis [2] were 28 mm and 8 mm, respectively.
